# Experimental data: patent US9326988B2, “Treatment and/or prevention of parkinson's disease dementia with ceftriaxone” (CHUNG SHAN MEDICAL UNIVERSITY, priority 2012, dated 2016)
# How the values were obtained:
# rats with PDD = experiment: Object recognition test in MPTP-HCl-induced PDD rats; type: in vivo, male Wistar rats
# Description: 1-methyl-4-phenyl-1,2,3,6-tetrahydropyridine hydrochloride (MPTP-HCl) was used to induce PDD in the rats, and the therapeutic effect of ceftriaxone on PDD was evaluated via behavioral tests and histopathological assessment of the brain for the rats. The experiments of this example were conducted substantially according to the method as described in Ho Y. J. et al. (2011), Behav. Brain Res., 219:280-290.
# The rats in the pathological control group, the preventive groups, and the treatment groups were anesthetized using Zoletil (Virbac, Carros, France; 20 mg/kg, intraperitoneal injection). Afterward, 0.5 M MPTP-HCl (in saline) was slowly infused bilaterally into the substantia nigra pars compacta (SNc) of the mesencephalon of each rat in the pathological control group, the preventive groups, and the treatment groups (0.21 mg/side) so as to induce the same to develop PDD.
# 5 days before the MPTP-HCl injection, ceftriaxone (Sigma) was administered to the rats in the preventive groups 1,2 via intraperitoneal injection respectively at a daily dose of 100 mg/kg and at a daily dose of 200 mg/kg until the end of the 14th day after the MPTP-HCl injection. After the MPTP-HCl injection, ceftriaxone was administered to the rats in the treatment group 1 and the sham-operated groups 2,3 via intraperitoneal injection respectively at a daily dose of 200 mg/kg, at a daily dose of 100 mg/kg, and at a daily dose of 200 mg/kg, and saline was administered to the rats in the pathological control group and the sham-operated group 1 via intraperitoneal injection at a daily dose of 1 mL/kg. In addition, starting on the 3rd day after the MPTP-HCl injection, ceftriaxone was administered to the rats in the treatment groups 2,3 via intraperitoneal injection respectively at a daily dose of 100 mg/kg and at a daily dose of 200 mg/kg. The rats in the pathological control group, the treatment groups 1,2,3, and the sham-operated groups 1,2,3 were subjected to the once-a-day administration until the end of the 14th day after the MPTP-HCl injection.
# Starting on the 8th day after the MPTP-HCl injection, the rats in each group were subjected to the T-maze test as described in section C of this example. Starting on the 12th day after the MPTP-HCl injection, the rats in each group were subjected to the object recognition test as described in section D of this example. On the 15th day after the MPTP-HCl injection, the rats in the treatment group 1, the sham-operated group 1, and the pathological control group were subjected to the histopathological analysis as described in section E of this example.
# In order to examine the effect of ceftriaxone on the recognition and/or memory ability of the rats with PDD, starting on the 12th day after the MPTP-HCl injection, all of the rats in each group were subjected to an object recognition test lasting a total of three days.
# The object recognition test is described as follows. The object recognition test included four trials. The first and second trilas were conducted respectively on the 12th and 13th after the MPTP-HCl injection, and the third and fourth trials were conducted on the 14th day after the MPTP-HCl injection. Each of the four trials lasted 5 minutes. The time interval between the first and second trials, and that between the second and third trials were 1 day. The time interval between the third and fourth trials was 5 minutes. At the beginning of each of the four trials, the respective rat was placed in the open box and adjacent to the corner C4 thereof. During the first, second, and third trials, the objects A1, A2, A3 were disposed in the open box for being able to be explored by the respective rat (see FIG. 2(A)). During the fourth trial, the object A3 was replaced with the object B (see FIG. 2(B)). During the object recognition test, a video camera installed above the open box was used to monitor and record the behavior of the respective rat.
# normal rats = experiment: Object recognition test in sham-operated rats; type: in vivo, male Wistar rats; details: determined 14th day (FIG. 4)
# Description: The rats in the sham-operated groups were generally subjected to the same surgical procedures for the rats in the pathological control group, the preventive groups, and the treatment groups, except that an equal volume of saline was infused bilaterally into the SNc of the mesencephalon of rats in the shame-operated groups.
# 5 days before the MPTP-HCl injection, ceftriaxone (Sigma) was administered to the rats in the preventive groups 1,2 via intraperitoneal injection respectively at a daily dose of 100 mg/kg and at a daily dose of 200 mg/kg until the end of the 14th day after the MPTP-HCl injection. After the MPTP-HCl injection, ceftriaxone was administered to the rats in the treatment group 1 and the sham-operated groups 2,3 via intraperitoneal injection respectively at a daily dose of 200 mg/kg, at a daily dose of 100 mg/kg, and at a daily dose of 200 mg/kg, and saline was administered to the rats in the pathological control group and the sham-operated group 1 via intraperitoneal injection at a daily dose of 1 mL/kg. […]
# The object recognition test is described as follows. […] By virtue of the video camera, the time spent by the respective rat exploring an object (i.e. the object A1, A2, A3, or B) during a trial (i.e. the first, second, third, or fourth trial) was measured. […]
# [1] = test system: rats chronically exposed to hypobaric hypoxia; details: cited from earlier work
smiles,measurement,setting,value
"CO/N=C(\C(=O)N[C@@H]1C(=O)N2C(C(=O)O)=C(CSc3nc(=O)c(=O)[nH]n3C)CS[C@H]12)c1csc(N)n1 [ceftriaxone, Ceftriaxone]",percentage of exploration time spent on object B in the fourth trial versus object A3 in the third trial,"rats with PDD; Example 1 preventive group 1: 100 mg/kg daily i.p. from 5 days before MPTP-HCl, determined 14th day (FIG. 4)",there is statistical significance
same,percentage of exploration time spent on object B in the fourth trial versus object A3 in the third trial,"rats with PDD; Example 1 preventive group 2: 200 mg/kg daily i.p. from 5 days before MPTP-HCl, determined 14th day (FIG. 4)",there is statistical significance
same,percentage of exploration time spent on object B in the fourth trial versus object A3 in the third trial,"rats with PDD; Example 1 treatment group 1: 200 mg/kg daily i.p. after MPTP-HCl injection to 14th day, determined 14th day (FIG. 4)",there is statistical significance
same,percentage of exploration time spent on object B in the fourth trial versus object A3 in the third trial,"rats with PDD; Example 1 treatment group 2: 100 mg/kg daily i.p. starting 3rd day after MPTP-HCl, determined 14th day (FIG. 4)",there is statistical significance
same,percentage of exploration time spent on object B in the fourth trial versus object A3 in the third trial,"rats with PDD; Example 1 treatment group 3: 200 mg/kg daily i.p. starting 3rd day after MPTP-HCl, determined 14th day (FIG. 4)",there is statistical significance
same,percentage of exploration time spent on object B in the fourth trial versus object A3 in the third trial,"rats with PDD; Example 2 treatment group 1: 10 mg/kg daily i.p. after MPTP-HCl injection, determined 14th day (FIG. 8)",there is statistical significance
same,percentage of exploration time spent on object B in the fourth trial versus object A3 in the third trial,"rats with PDD; Example 2 treatment group 2: 50 mg/kg daily i.p. after MPTP-HCl injection, determined 14th day (FIG. 8)",there is statistical significance
same,percentage of exploration time spent on object B in the fourth trial versus object A3 in the third trial,normal rats; sham-operated group 2: 100 mg/kg daily i.p.,there is statistical significance
same,percentage of exploration time spent on object B in the fourth trial versus object A3 in the third trial,normal rats; sham-operated group 3: 200 mg/kg daily i.p.,there is statistical significance
same,cognitive impairment resulting from hypobaric hypoxia,[1],capable of ameliorating the cognitive impairment resulting from hypobaric hypoxia
same,neuronal degeneration and chromatin condensation,[1],decreasing neuronal degeneration and chromatin condensation
same,oxidative stress in the hippocampus,[1],reducing oxidative stress in the hippocampus
